# Experimental data from patent publication US20090215778A1, “Alpha-substituted Arylmethyl Piperazine Pyrazolo [1,5-alpha]Pyrimidine Amide Derivatives” (priority 2007, published 2009).
# Legend:
# [1] = target: T1, HIV Env six-helix bundle (6HB) structure (Human immunodeficiency virus type 1 group M subtype B, UniProt P04579); test: Six-helix bundle (6HB) assay; type: cell-based, HIV-1 (strain RF)
# T1 construct: H9 cells chronically infected with HIV-1 (H9/HIV-1RF); endogenous in cells; host or cells: H9 cells chronically infected with HIV-1 strain RF (Env is made from the virus in the infected cells, not by transfection)
# T1 sequence (P04579 32-519): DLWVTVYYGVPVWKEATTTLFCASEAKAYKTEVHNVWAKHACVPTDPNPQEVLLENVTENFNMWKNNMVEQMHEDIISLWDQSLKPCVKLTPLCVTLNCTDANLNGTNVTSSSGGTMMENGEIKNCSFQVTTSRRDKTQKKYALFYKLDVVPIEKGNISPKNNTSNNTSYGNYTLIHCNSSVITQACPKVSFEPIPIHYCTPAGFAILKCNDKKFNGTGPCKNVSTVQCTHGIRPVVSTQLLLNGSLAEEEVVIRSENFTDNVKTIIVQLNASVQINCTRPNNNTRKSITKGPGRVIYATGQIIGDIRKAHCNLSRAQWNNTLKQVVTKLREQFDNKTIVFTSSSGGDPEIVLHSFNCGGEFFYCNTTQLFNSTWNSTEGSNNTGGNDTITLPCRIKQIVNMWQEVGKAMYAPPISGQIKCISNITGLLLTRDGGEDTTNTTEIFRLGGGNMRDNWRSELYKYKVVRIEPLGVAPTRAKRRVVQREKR
# T1 sequence (P04579 520-865): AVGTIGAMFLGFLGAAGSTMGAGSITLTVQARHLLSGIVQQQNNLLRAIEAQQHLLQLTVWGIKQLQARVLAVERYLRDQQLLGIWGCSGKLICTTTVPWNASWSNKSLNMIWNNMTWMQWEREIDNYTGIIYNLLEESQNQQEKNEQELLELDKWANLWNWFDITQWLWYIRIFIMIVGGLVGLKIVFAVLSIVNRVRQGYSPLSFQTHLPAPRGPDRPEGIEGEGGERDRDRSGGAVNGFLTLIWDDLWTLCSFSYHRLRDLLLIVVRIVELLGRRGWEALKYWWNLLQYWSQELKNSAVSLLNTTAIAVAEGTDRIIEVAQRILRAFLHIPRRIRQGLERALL
# Procedure, shortened: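 Chronically HIV-1 RF-infected H9 cells (12-40 days post-infection), 2.5×10^5 per well, were preincubated with compound for 30 min at 37 °C. sCD4 at 1 μg/mL was added for 1 h to trigger Env changes. 6HB-specific rabbit serum (1 h, 37 °C) was then added, followed by PE anti-rabbit (45 min, 4 °C), with flow cytometric fluorescence read-out.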
# HIV-1, NL4-3 strain = test: Virus infection assay (virus entry and single-cycle infection); type: cell-based; conditions: Human immunodeficiency virus 1, NL43, TZM-b1, read-out: Nl4
# Procedure, shortened: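 TZM-b1 cells (CD4, CXCR4, CCR5; LTR-driven lacZ/luciferase reporters) were infected with HIV-1 NL4-3 (MOI 0.01) with 80 μg/mL DEAE-dextran in the presence of test compound, 4 h at 37 °C before adding complete medium. Infection was quantified one day post-infection as chemiluminescent β-galactosidase signal.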
structure (smiles),measurement,setting,value
"COc1ccc(-c2nc3c(C(=O)N4CCN([C@@H](C)c5cccc(NC(C)=O)c5)C[C@H]4C)cnn3c(C(F)(F)F)c2C)cc1 [acetamide, N-[3-[(1S)-1-[(3R)-4-[[5-(4-methoxyphenyl)-6-methyl-7-(trifluoromethyl)pyrazolo[1,5-α]pyrimidin-3-yl]carbonyl]-3-methyl-1-piperazinyl]ethyl]phenyl]-]",IC50,[1],< 1 µM
same,IC50,"HIV-1, NL4-3 strain",< 1 µM
"COc1ccc(-c2nc3c(C(=O)N4CCN(C(CO)c5ccccc5OC(F)(F)F)C[C@H]4C)cnn3c(C(F)(F)F)c2C)cc1 (stereo partly drawn) [methanone, [(2R)-4-[2-hydroxy-1-[2-(trifluoromethoxy)phenyl]ethyl]-2-methyl-1-piperazinyl][5-(4-methoxyphenyl)-6-methyl-7-(trifluoromethyl)pyrazolo[1,5-α]pyrimidin-3-yl]-]",IC50,[1],1.1 to 10 µM
same,IC50,"HIV-1, NL4-3 strain",1.1 to 10 µM
"COc1ccc(-c2nc3c(C(=O)N4CCN(C(CO)c5ccccc5NC(=O)C5CC5)C[C@H]4C)cnn3c(C(F)(F)F)c2C)cc1 (stereo partly drawn) [cyclopropanecarboxamide, N-[2-[2-hydroxy-1-[(3R)-4-[[5-(4-methoxyphenyl)-6-methyl-7-(trifluoromethyl)pyrazolo[1,5-α]pyrimidin-3-yl]carbonyl]-3-methyl-1-piperazinyl]ethyl]phenyl]-]",IC50,[1],> 10.1 µM
same,IC50,"HIV-1, NL4-3 strain",> 10.1 µM
"COc1ccc(-c2nc3c(C(=O)N4CCN([C@H](CO)c5ccco5)C[C@H]4C)cnn3c(C(F)(F)F)c2C)cc1 [methanone, [(2R)-4-[(1R)-1-(2-furanyl)-2-hydroxyethyl]-2-methyl-1-piperazinyl][5-(4-methoxyphenyl)-6-methyl-7-(trifluoromethyl)pyrazolo[1,5-α]pyrimidin-3-yl]-]",IC50,[1],< 1 µM
same,IC50,"HIV-1, NL4-3 strain",< 1 µM
"COc1ccc(-c2nc3c(C(=O)N4CCN(C(CO)c5cc(OC)ccc5OC)C[C@H]4C)cnn3c(C(F)(F)F)c2C)cc1 (stereo partly drawn) [methanone, [(2R)-4-[1-(2,5-dimethoxyphenyl)-2-hydroxyethyl]-2-methyl-1-piperazinyl][5-(4-methoxyphenyl)-6-methyl-7-(trifluoromethyl)pyrazolo[1,5-α]pyrimidin-3-yl]-]",IC50,[1],1.1 to 10 µM
same,IC50,"HIV-1, NL4-3 strain",< 1 µM
"COc1ccc(-c2nc3c(C(=O)N4CCN([C@H](C)c5cc(F)c(F)c(F)c5)C[C@H]4C)cnn3c(C(F)(F)F)c2C)cc1 [methanone, [5-(4-methoxyphenyl)-6-methyl-7-(trifluoromethyl)pyrazolo[1,5-α]pyrimidin-3-yl][(2R)-2-methyl-4-[(1R)-1-(3,4,5-trifluorophenyl)ethyl]-1-piperazinyl]-]",IC50,[1],< 1 µM
same,IC50,"HIV-1, NL4-3 strain",< 1 µM
"COc1ccc(-c2nc3c(C(=O)N4CCN([C@@H](C)c5ccccc5)C[C@H]4C)cnn3c(C(F)(F)F)c2C)cc1 [methanone, [5-(4-methoxyphenyl)-6-methyl-7-(trifluoromethyl)pyrazolo[1,5-α]pyrimidin-3-yl][(2R)-2-methyl-4-[(1S)-1-phenylethyl]-1-piperazinyl]-]",IC50,[1],< 1 µM
same,IC50,"HIV-1, NL4-3 strain",< 1 µM
COc1ccc(-c2nc3c(C(=O)N4CCN(C(CO)c5ccc(Cl)nc5)C[C@H]4C)cnn3c(C(F)(F)F)c2C)cc1 (some centres unmarked),IC50,[1],< 1 µM
same,IC50,"HIV-1, NL4-3 strain",< 1 µM
"COc1ccc(-c2nc3c(C(=O)N4CCN(C(CO)c5cccc(C(C)=O)c5)C[C@H]4C)cnn3c(C(F)(F)F)c2C)cc1 (stereo partly drawn) [ethanone, 1-[3-[2-hydroxy-1-[(3R)-4-[[5-(4-methoxyphenyl)-6-methyl-7-(trifluoromethyl)pyrazolo[1,5-α]pyrimidin-3-yl]carbonyl]-3-methyl-1-piperazinyl]ethyl]phenyl]-]",IC50,[1],< 1 µM
same,IC50,"HIV-1, NL4-3 strain",< 1 µM
"COc1ccc(-c2nc3c(C(=O)N4CCN(C(C(=O)O)c5ccccc5)C[C@H]4C)cnn3c(C(F)(F)F)c2C)cc1 (stereo partly drawn) [1-piperazineacetic acid, 4-[[5-(4-methoxyphenyl)-6-methyl-7-(trifluoromethyl)pyrazolo[1,5-α]pyrimidin-3-yl]carbonyl]-3-methyl-α-phenyl-, (3R)-]",IC50,[1],> 10.1 µM
same,IC50,"HIV-1, NL4-3 strain",> 10.1 µM
